Laboratory results: the NIST ThermoML archive (doi:10.1021/je400722h)
± gives the expanded uncertainty stated by the source.

Experiment: xn = mol fraction of the nth substance listed
Details: 101 kPa, Liquid; for speed of sound: Pulse-echo method; for mass density: Vibrating tube method

Cc1ccccc1Cl [2-chlorotoluene] + C1CCOCC1
Details	mass density, 298.15 K [kg/m3]	mass density, 303.15 K [kg/m3]	mass density, 308.15 K [kg/m3]	speed of sound, 298.15 K [m/s]	speed of sound, 303.15 K [m/s]	speed of sound, 308.15 K [m/s]
x1 = 0.1156	906.77 ± 1	901.67 ± 1	896.57 ± 1	1274.6 ± 1.1	1252.7 ± 1	1230.7 ± 1
x1 = 0.1765	920.75 ± 1	915.67 ± 1	910.57 ± 1	1277 ± 1.1	1255.6 ± 1.1	1233.7 ± 1.1
x1 = 0.2342	933.65 ± 1	928.57 ± 1	923.48 ± 1	1279.3 ± 1.1	1258.1 ± 1.1	1236.6 ± 1.1
x1 = 0.2765	942.89 ± 1	937.81 ± 1	932.73 ± 1	1280.9 ± 1.1	1259.9 ± 1.1	1238.6 ± 1.1
x1 = 0.3305	954.43 ± 1	949.36 ± 1	944.29 ± 1	1282.9 ± 1.1	1262 ± 1.1	1241 ± 1.1
x1 = 0.3716	963.04 ± 1	957.97 ± 1	952.9 ± 1	1284.4 ± 1.1	1263.7 ± 1.1	1242.9 ± 1.1
x1 = 0.4235	973.69 ± 1	968.63 ± 1	963.56 ± 1	1286.2 ± 1.1	1265.7 ± 1.1	1245 ± 1.1
x1 = 0.4721	983.44 ± 1	978.39 ± 1	973.33 ± 1	1287.9 ± 1.1	1267.4 ± 1.1	1247 ± 1.1
x1 = 0.5216	993.16 ± 1	988.12 ± 1	983.08 ± 1	1289.4 ± 1.1	1269 ± 1.1	1249 ± 1.1
x1 = 0.5803	1004.4 ± 1	999.4 ± 1	994.39 ± 1	1291.2 ± 1.1	1271.1 ± 1.1	1251.1 ± 1.1
x1 = 0.6317	1014.1 ± 1	1009.1 ± 1	1004.1 ± 1	1292.6 ± 1.1	1272.7 ± 1.1	1252.8 ± 1.1
x1 = 0.6796	1022.8 ± 1	1017.9 ± 1	1012.9 ± 1	1293.9 ± 1.1	1274.1 ± 1.1	1254.5 ± 1.1
x1 = 0.7216	1030.4 ± 1	1025.4 ± 1	1020.5 ± 1	1294.8 ± 1.2	1275.3 ± 1.1	1255.7 ± 1.1
x1 = 0.7737	1039.6 ± 1	1034.7 ± 1	1029.7 ± 1	1296 ± 1.2	1276.7 ± 1.2	1257.3 ± 1.2
x1 = 0.8219	1047.9 ± 1	1043 ± 1	1038.1 ± 1	1296.8 ± 1.2	1277.8 ± 1.2	1258.6 ± 1.2
x1 = 0.8753	1057 ± 1	1052.1 ± 1	1047.2 ± 1	1297.7 ± 1.2	1279 ± 1.2	1260 ± 1.2
x1 = 0.9064	1062.2 ± 1	1057.3 ± 1	1052.4 ± 1	1298.1 ± 1.2	1279.5 ± 1.2	1260.7 ± 1.2
x1 = 0.9325	1066.5 ± 1	1061.6 ± 1	1056.7 ± 1	1298.3 ± 1.2	1279.9 ± 1.2	1261.4 ± 1.2

Cc1ccccc1Cl [2-chlorotoluene] + C1COCCO1
Details	mass density, 298.15 K [kg/m3]	mass density, 303.15 K [kg/m3]	mass density, 308.15 K [kg/m3]	speed of sound, 298.15 K [m/s]	speed of sound, 303.15 K [m/s]	speed of sound, 308.15 K [m/s]
x1 = 0.0984	1033.4 ± 1	1027.7 ± 1	1022 ± 1	1338.2 ± 1.1	1316.6 ± 1.1	1295.1 ± 1.1
x1 = 0.1643	1036.9 ± 1	1031.3 ± 1	1025.6 ± 1	1333.2 ± 1.1	1312 ± 1.1	1290.8 ± 1.1
x1 = 0.2124	1039.5 ± 1	1033.9 ± 1	1028.3 ± 1	1329.9 ± 1.1	1308.9 ± 1.1	1287.9 ± 1.1
x1 = 0.2837	1043.3 ± 1	1037.8 ± 1	1032.3 ± 1	1325.3 ± 1.1	1304.6 ± 1.1	1284 ± 1.1
x1 = 0.3427	1046.3 ± 1	1040.9 ± 1	1035.5 ± 1	1321.8 ± 1.2	1301.5 ± 1.1	1281.2 ± 1.1
x1 = 0.3918	1048.9 ± 1	1043.5 ± 1	1038.2 ± 1	1319.1 ± 1.2	1299 ± 1.2	1279 ± 1.1
x1 = 0.4375	1051.2 ± 1	1045.9 ± 1	1040.6 ± 1	1316.8 ± 1.2	1296.9 ± 1.2	1277 ± 1.1
x1 = 0.4864	1053.6 ± 1	1048.4 ± 1	1043.1 ± 1	1314.5 ± 1.2	1294.8 ± 1.2	1275.1 ± 1.2
x1 = 0.5237	1055.5 ± 1	1050.3 ± 1	1045.1 ± 1	1312.8 ± 1.2	1293.2 ± 1.2	1273.8 ± 1.2
x1 = 0.5765	1058.1 ± 1	1052.9 ± 1	1047.7 ± 1	1310.7 ± 1.2	1291.2 ± 1.2	1271.9 ± 1.2
x1 = 0.6237	1060.4 ± 1	1055.2 ± 1	1050.1 ± 1	1308.8 ± 1.2	1289.6 ± 1.2	1270.4 ± 1.2
x1 = 0.6801	1063 ± 1	1057.9 ± 1	1052.8 ± 1	1306.9 ± 1.2	1287.7 ± 1.2	1268.7 ± 1.2
x1 = 0.7135	1064.6 ± 1	1059.5 ± 1	1054.4 ± 1	1305.8 ± 1.2	1286.7 ± 1.2	1267.8 ± 1.2
x1 = 0.7737	1067.4 ± 1	1062.3 ± 1	1057.2 ± 1	1304 ± 1.2	1285 ± 1.2	1266.3 ± 1.2
x1 = 0.8125	1069.2 ± 1	1064.1 ± 1	1059 ± 1	1302.9 ± 1.2	1284.1 ± 1.2	1265.4 ± 1.2
x1 = 0.8635	1071.4 ± 1	1066.4 ± 1	1061.4 ± 1	1301.7 ± 1.2	1283 ± 1.2	1264.4 ± 1.2
x1 = 0.9012	1073.1 ± 1	1068.1 ± 1	1063.1 ± 1	1300.8 ± 1.2	1282.2 ± 1.2	1263.8 ± 1.2
x1 = 0.9415	1074.9 ± 1	1069.9 ± 1	1064.9 ± 1	1299.9 ± 1.2	1281.5 ± 1.2	1263.3 ± 1.2

Cc1ccccc1Cl [2-chlorotoluene] + C1COCO1
Details	mass density, 298.15 K [kg/m3]	mass density, 303.15 K [kg/m3]	mass density, 308.15 K [kg/m3]	speed of sound, 298.15 K [m/s]	speed of sound, 303.15 K [m/s]	speed of sound, 308.15 K [m/s]
x1 = 0.0902	1061.1 ± 1	1054.9 ± 1	1048.7 ± 1	1326.8 ± 1.1	1304.4 ± 1.1	1281.7 ± 1.1
x1 = 0.1536	1062.6 ± 1	1056.4 ± 1	1050.4 ± 1	1320 ± 1.1	1297.8 ± 1.1	1275.2 ± 1.1
x1 = 0.2167	1064 ± 1	1057.9 ± 1	1052 ± 1	1314.3 ± 1.1	1292.5 ± 1.1	1270.4 ± 1.1
x1 = 0.2734	1065.2 ± 1	1059.3 ± 1	1053.4 ± 1	1310.1 ± 1.1	1288.8 ± 1.1	1267 ± 1.1
x1 = 0.3169	1066.1 ± 1	1060.2 ± 1	1054.4 ± 1	1307.4 ± 1.1	1286.4 ± 1.1	1265.1 ± 1.1
x1 = 0.3843	1067.5 ± 1	1061.7 ± 1	1055.9 ± 1	1303.8 ± 1.1	1283.5 ± 1.1	1262.7 ± 1.1
x1 = 0.4301	1068.4 ± 1	1062.7 ± 1	1057 ± 1	1301.9 ± 1.1	1281.9 ± 1.1	1261.4 ± 1.1
x1 = 0.4831	1069.4 ± 1	1063.7 ± 1	1058.1 ± 1	1300.1 ± 1.1	1280.3 ± 1.1	1260.3 ± 1.1
x1 = 0.5278	1070.2 ± 1	1064.6 ± 1	1059 ± 1	1298.9 ± 1.1	1279.3 ± 1.1	1259.6 ± 1.1
x1 = 0.5834	1071.2 ± 1	1065.7 ± 1	1060.2 ± 1	1297.8 ± 1.1	1278.4 ± 1.1	1258.7 ± 1.1
x1 = 0.6265	1071.9 ± 1	1066.5 ± 1	1061 ± 1	1297.3 ± 1.1	1277.9 ± 1.1	1258.3 ± 1.1
x1 = 0.6793	1072.7 ± 1	1067.4 ± 1	1062 ± 1	1296.8 ± 1.1	1277.4 ± 1.1	1258 ± 1.1
x1 = 0.7315	1073.6 ± 1	1068.3 ± 1	1063 ± 1	1296.6 ± 1.2	1277.3 ± 1.2	1257.8 ± 1.1
x1 = 0.7829	1074.4 ± 1	1069.1 ± 1	1063.9 ± 1	1296.7 ± 1.2	1277.4 ± 1.2	1257.9 ± 1.2
x1 = 0.8242	1075 ± 1	1069.8 ± 1	1064.7 ± 1	1296.9 ± 1.2	1277.6 ± 1.2	1258.1 ± 1.2
x1 = 0.8565	1075.4 ± 1	1070.3 ± 1	1065.2 ± 1	1297.1 ± 1.2	1277.8 ± 1.2	1258.5 ± 1.2
x1 = 0.9013	1076 ± 1	1071 ± 1	1066 ± 1	1297.5 ± 1.2	1278.5 ± 1.2	1259.3 ± 1.2
x1 = 0.9325	1076.5 ± 1	1071.5 ± 1	1066.5 ± 1	1297.8 ± 1.2	1279 ± 1.2	1260.1 ± 1.2
x1 = 1	1077.3 ± 1	1072.5 ± 1	1067.6 ± 1	1298.7 ± 1.2	1280.7 ± 1.2	1262.7 ± 1.2
